Measured values published in PubChem BioAssay (NCI).
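Five compound concentrations were applied to cells in 96-well plates for 48 hours; endpoints were derived by simple linear interpolation of the resulting dose-response curve. TGI is the concentration that stops growth completely.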

Key:
Assay in all cases: NCI tumour cell line growth inhibition, 48 h
DLD-1 colon = system: DLD-1 colon
RPMI-8226 leukemia = system: RPMI-8226 leukemia
SK-MEL-5 melanoma = system: SK-MEL-5 melanoma
HCT-116 colon = system: HCT-116 colon
OVCAR-5 ovarian = system: OVCAR-5 ovarian
MALME-3M melanoma = system: MALME-3M melanoma
SF-295 CNS = system: SF-295 CNS
A549 NSCLC = system: A549 NSCLC
UACC-62 melanoma = system: UACC-62 melanoma
KM20L2 colon = system: KM20L2 colon
SNB-19 CNS = system: SNB-19 CNS
SW-620 colon = system: SW-620 colon
KM12 colon = system: KM12 colon
U251 CNS = system: U251 CNS
ACHN renal = system: ACHN renal
A498 renal = system: A498 renal
CAKI-1 renal = system: CAKI-1 renal
786-0 renal = system: 786-0 renal
RXF-631 renal = system: RXF-631 renal
NCI-H522 lung = system: NCI-H522 lung
SR leukemia = system: SR leukemia
SF-268 CNS = system: SF-268 CNS
HOP-92 NSCLC = system: HOP-92 NSCLC
OVCAR-8 ovarian = system: OVCAR-8 ovarian
HT29 colon = system: HT29 colon
M14 melanoma = system: M14 melanoma
MOLT-4 leukemia = system: MOLT-4 leukemia
CCRF-CEM leukemia = system: CCRF-CEM leukemia
OVCAR-4 ovarian = system: OVCAR-4 ovarian
EKVX NSCLC = system: EKVX NSCLC
IGROV1 ovarian = system: IGROV1 ovarian
DMS 273 small cell lung = system: DMS 273 small cell lung
HL-60(TB) leukemia = system: HL-60(TB) leukemia
NCI-H23 lung = system: NCI-H23 lung
HCT-15 colon = system: HCT-15 colon
LXFL 529 NSCLC = system: LXFL 529 NSCLC
OVCAR-3 ovarian = system: OVCAR-3 ovarian
K-562 leukemia = system: K-562 leukemia
LOX IMVI melanoma = system: LOX IMVI melanoma
DMS 114 small cell lung = system: DMS 114 small cell lung
SF-539 CNS = system: SF-539 CNS
HCC-2998 colon = system: HCC-2998 colon
SK-MEL-2 melanoma = system: SK-MEL-2 melanoma
COLO 205 colon = system: COLO 205 colon
RXF 393 renal = system: RXF 393 renal
UACC-257 melanoma = system: UACC-257 melanoma
SK-MEL-28 melanoma = system: SK-MEL-28 melanoma
XF 498 CNS = system: XF 498 CNS
HOP-62 NSCLC = system: HOP-62 NSCLC
TK-10 renal = system: TK-10 renal
SNB-78 CNS = system: SNB-78 CNS
UO-31 renal = system: UO-31 renal
NCI-H460 lung = system: NCI-H460 lung
SNB-75 CNS = system: SNB-75 CNS
M19-MEL melanoma = system: M19-MEL melanoma
SN12C renal = system: SN12C renal
SK-OV-3 ovarian = system: SK-OV-3 ovarian
HOP-18 NSCLC = system: HOP-18 NSCLC
SN12K1 renal = system: SN12K1 renal
NCI/ADR-RES ovarian = system: NCI/ADR-RES ovarian
P388 leukemia = system: P388 leukemia
MCF7 breast = system: MCF7 breast
NCI-H226 lung = system: NCI-H226 lung

With O=[N+]([O-])c1ccc(-c2csc(=[N+]3CCCCC3)s2)cc1 as the compound, how does the TGI (DLD-1 colon) read?
Its TGI is > 100 µM.

And the TGI (RPMI-8226 leukemia)?
The TGI was > 100 µM.

And the TGI (SK-MEL-5 melanoma)?
The TGI was 17.8 µM.

And the TGI (HCT-116 colon)?
The TGI was > 100 µM.

What about the TGI (OVCAR-5 ovarian) of the same compound?
The TGI was 62.6 µM.

And the TGI (MALME-3M melanoma)?
Its TGI is 32.1 µM.

And the TGI (SF-295 CNS)?
The TGI was > 62.5 µM.

And the TGI (A549 NSCLC)?
The TGI was > 100 µM.

What about the TGI (UACC-62 melanoma) of the same compound?
Its TGI is > 100 µM.

And the TGI (KM20L2 colon)?
Its TGI is > 100 µM.

And the TGI (SNB-19 CNS)?
Its TGI is > 100 µM.

What about the TGI (SW-620 colon) of the same compound?
The TGI was > 100 µM.

And the TGI (KM12 colon)?
Its TGI is > 100 µM.

What about the TGI (U251 CNS) of the same compound?
The TGI was > 20.8 µM.

And the TGI (ACHN renal)?
The TGI was > 100 µM.

What about the TGI (A498 renal) of the same compound?
The TGI was 63.6 µM.

And the TGI (CAKI-1 renal)?
Its TGI is > 100 µM.

And the TGI (786-0 renal)?
The TGI was > 100 µM.

What about the TGI (RXF-631 renal) of the same compound?
The TGI was > 100 µM.

And the TGI (NCI-H522 lung)?
The TGI was 18.3 µM.

And the TGI (SR leukemia)?
The TGI was > 83.3 µM.

And the TGI (SF-268 CNS)?
The TGI was > 100 µM.

And the TGI (HOP-92 NSCLC)?
Its TGI is 64.9 µM.

And the TGI (OVCAR-8 ovarian)?
The TGI was > 100 µM.

What about the TGI (HT29 colon) of the same compound?
Its TGI is > 100 µM.

And the TGI (M14 melanoma)?
The TGI was > 100 µM.

What about the TGI (MOLT-4 leukemia) of the same compound?
The TGI was > 60.9 µM.

What about the TGI (CCRF-CEM leukemia) of the same compound?
The TGI was > 100 µM.

What about the TGI (OVCAR-4 ovarian) of the same compound?
The TGI was 81.4 µM.

And the TGI (EKVX NSCLC)?
The TGI was > 100 µM.

What about the TGI (IGROV1 ovarian) of the same compound?
The TGI was > 100 µM.

And the TGI (DMS 273 small cell lung)?
Its TGI is > 100 µM.

What about the TGI (HL-60(TB) leukemia) of the same compound?
Its TGI is > 86.6 µM.

What about the TGI (NCI-H23 lung) of the same compound?
The TGI was 22.8 µM.

And the TGI (HCT-15 colon)?
The TGI was > 100 µM.

And the TGI (LXFL 529 NSCLC)?
The TGI was > 100 µM.

And the TGI (OVCAR-3 ovarian)?
Its TGI is > 100 µM.

What about the TGI (K-562 leukemia) of the same compound?
Its TGI is > 100 µM.

And the TGI (LOX IMVI melanoma)?
The TGI was > 100 µM.

What about the TGI (DMS 114 small cell lung) of the same compound?
The TGI was 8.03 µM.

And the TGI (SF-539 CNS)?
Its TGI is > 100 µM.

What about the TGI (HCC-2998 colon) of the same compound?
Its TGI is > 100 µM.

What about the TGI (SK-MEL-2 melanoma) of the same compound?
Its TGI is 60.2 µM.

What about the TGI (COLO 205 colon) of the same compound?
The TGI was 5.58 µM.

What about the TGI (RXF 393 renal) of the same compound?
Its TGI is > 100 µM.

What about the TGI (UACC-257 melanoma) of the same compound?
The TGI was 31.4 µM.

What about the TGI (SK-MEL-28 melanoma) of the same compound?
The TGI was > 100 µM.

And the TGI (XF 498 CNS)?
The TGI was 48.1 µM.

What about the TGI (HOP-62 NSCLC) of the same compound?
The TGI was 11.6 µM.

What about the TGI (TK-10 renal) of the same compound?
The TGI was > 100 µM.

And the TGI (SNB-78 CNS)?
Its TGI is > 100 µM.

And the TGI (UO-31 renal)?
Its TGI is > 100 µM.

What about the TGI (NCI-H460 lung) of the same compound?
Its TGI is > 100 µM.

And the TGI (SNB-75 CNS)?
Its TGI is > 26.5 µM.

And the TGI (M19-MEL melanoma)?
Its TGI is > 45.9 µM.

And the TGI (SN12C renal)?
The TGI was > 100 µM.

And the TGI (SK-OV-3 ovarian)?
The TGI was > 100 µM.

What about the TGI (HOP-18 NSCLC) of the same compound?
Its TGI is > 100 µM.

With COc1cc(N=Nc2ccc(OC)c(S(=O)(=O)O)c2)c(C)cc1N=Nc1ccc(/C=C/c2ccc(N=[N+]([O-])c3ccc(/C=C/c4ccc(N=Nc5cc(C)c(N=Nc6ccc(OC)c(S(=O)(=O)O)c6)cc5OC)cc4S(=O)(=O)O)c(S(=O)(=O)O)c3)cc2S(=O)(=O)O)c(S(=O)(=O)O)c1 as the compound, how does the TGI (SN12K1 renal) read?
Its TGI is > 100 µM.

And the TGI (DLD-1 colon)?
Its TGI is > 100 µM.

What about the TGI (RPMI-8226 leukemia) of the same compound?
The TGI was > 100 µM.

What about the TGI (SK-MEL-5 melanoma) of the same compound?
Its TGI is > 100 µM.

And the TGI (HCT-116 colon)?
The TGI was > 100 µM.

And the TGI (OVCAR-5 ovarian)?
Its TGI is > 100 µM.

And the TGI (MALME-3M melanoma)?
The TGI was > 100 µM.

What about the TGI (SF-295 CNS) of the same compound?
The TGI was > 100 µM.

And the TGI (A549 NSCLC)?
The TGI was > 100 µM.

What about the TGI (UACC-62 melanoma) of the same compound?
Its TGI is > 100 µM.

And the TGI (KM20L2 colon)?
The TGI was > 100 µM.

What about the TGI (SNB-19 CNS) of the same compound?
Its TGI is > 100 µM.

And the TGI (NCI/ADR-RES ovarian)?
Its TGI is > 100 µM.

And the TGI (SW-620 colon)?
Its TGI is > 100 µM.

What about the TGI (KM12 colon) of the same compound?
Its TGI is > 100 µM.

What about the TGI (U251 CNS) of the same compound?
Its TGI is > 100 µM.

What about the TGI (A498 renal) of the same compound?
Its TGI is > 100 µM.

What about the TGI (P388 leukemia) of the same compound?
Its TGI is > 100 µM.

What about the TGI (NCI-H522 lung) of the same compound?
Its TGI is > 100 µM.

What about the TGI (MCF7 breast) of the same compound?
The TGI was > 100 µM.

And the TGI (SF-268 CNS)?
Its TGI is > 100 µM.

And the TGI (HOP-92 NSCLC)?
The TGI was > 100 µM.

And the TGI (OVCAR-8 ovarian)?
Its TGI is > 100 µM.

And the TGI (HT29 colon)?
The TGI was > 100 µM.

What about the TGI (MOLT-4 leukemia) of the same compound?
Its TGI is > 100 µM.

And the TGI (CCRF-CEM leukemia)?
The TGI was > 100 µM.

And the TGI (OVCAR-4 ovarian)?
Its TGI is > 100 µM.

What about the TGI (EKVX NSCLC) of the same compound?
The TGI was > 100 µM.

What about the TGI (IGROV1 ovarian) of the same compound?
Its TGI is > 100 µM.

What about the TGI (DMS 273 small cell lung) of the same compound?
The TGI was > 100 µM.

What about the TGI (HL-60(TB) leukemia) of the same compound?
The TGI was > 100 µM.

What about the TGI (NCI-H23 lung) of the same compound?
The TGI was > 100 µM.

What about the TGI (HCT-15 colon) of the same compound?
The TGI was > 100 µM.

What about the TGI (OVCAR-3 ovarian) of the same compound?
Its TGI is > 100 µM.

What about the TGI (K-562 leukemia) of the same compound?
The TGI was > 100 µM.

What about the TGI (LOX IMVI melanoma) of the same compound?
The TGI was > 100 µM.

What about the TGI (DMS 114 small cell lung) of the same compound?
The TGI was > 100 µM.

And the TGI (SF-539 CNS)?
Its TGI is > 100 µM.

What about the TGI (HCC-2998 colon) of the same compound?
Its TGI is > 100 µM.

And the TGI (SK-MEL-2 melanoma)?
Its TGI is > 100 µM.

And the TGI (COLO 205 colon)?
Its TGI is > 100 µM.

And the TGI (NCI-H226 lung)?
Its TGI is > 100 µM.

What about the TGI (RXF 393 renal) of the same compound?
The TGI was > 100 µM.

What about the TGI (UACC-257 melanoma) of the same compound?
The TGI was > 100 µM.

And the TGI (SK-MEL-28 melanoma)?
The TGI was > 100 µM.

And the TGI (XF 498 CNS)?
Its TGI is > 100 µM.

And the TGI (HOP-62 NSCLC)?
Its TGI is > 100 µM.

What about the TGI (SNB-78 CNS) of the same compound?
The TGI was > 100 µM.

What about the TGI (UO-31 renal) of the same compound?
Its TGI is > 100 µM.

What about the TGI (NCI-H460 lung) of the same compound?
The TGI was > 100 µM.

And the TGI (SNB-75 CNS)?
Its TGI is > 100 µM.

What about the TGI (M19-MEL melanoma) of the same compound?
Its TGI is > 100 µM.

And the TGI (SN12C renal)?
Its TGI is > 100 µM.

What about the TGI (SK-OV-3 ovarian) of the same compound?
The TGI was > 100 µM.

And the TGI (HOP-18 NSCLC)?
Its TGI is > 100 µM.
